The test system of series [1] is Rattus norvegicus. In words: Effect on sodium level in urine in Sprague-Dawley rat at 2 mg/kg administered via oral gavage measured after 16 hrs by gravimetric analysis relative to vehicle-treated control. Type of series: functional.
For series [2], the system named is Rattus norvegicus. In words: Effect on phosphate level in urine in Sprague-Dawley rat at 2 mg/kg administered via oral gavage measured after 16 hrs by gravimetric analysis relative to vehicle-treated control. Type of series: functional.
Series [3] concerns Rattus norvegicus. In words: Effect on sodium level in urine in Sprague-Dawley rat at 1 mg/kg administered via oral gavage measured after 16 hrs by gravimetric analysis relative to vehicle-treated control. Type of series: functional.
Series [4] in a line: Toxicity in Sprague-Dawley rat model of uremia-associated vascular calcification assessed as change in body weight in presence of calcitriol. As to conditions: in vivo.
The test system of series [5] is Rattus norvegicus. Kind of series: Effect on urinary excretion of phosphorus in dietary salt-induced Sprague-Dawley rat partial ablation model of chronic kidney disease at 0.3 to 3 mg/kg administered with chow diet measured after 7 days. Type of series: functional, organism-based.
The species entered for series [6] is Rattus norvegicus. In words: Reduction in plasma creatinine level in Sprague-Dawley rat model of uremia-associated vascular calcification measured after 27 days in presence of calcitriol. Type of series: functional.
For series [7], the species on record is Rattus norvegicus. Kind of series: Reduction in plasma phosphorus level in Sprague-Dawley rat model of uremia-associated vascular calcification measured after 27 days in presence of calcitriol. In kind it is functional.
For series [8], the species on record is Rattus norvegicus. Kind of series: Reduction in plasma FGF23 level in Sprague-Dawley rat model of uremia-associated vascular calcification measured after 27 days in presence of calcitriol. Type of series: functional.
Series [9] is filed under the species Rattus norvegicus. In words: Reduction in creatinine clearance in Sprague-Dawley rat model of uremia-associated vascular calcification measured after 27 days in presence of calcitriol. Type of series: functional.
The species named for series [10] is Rattus norvegicus. Kind of series: Increase in plasma aldosterone level in Sprague-Dawley rat model of uremia-associated vascular calcification measured after 27 days in presence of calcitriol. Type of series: functional.
Series [11] is filed under the species Rattus norvegicus. Kind of series: Reduction in stomach calcium content in Sprague-Dawley rat model of uremia-associated vascular calcification measured after 27 days in presence of calcitriol. Type of series: functional.
The species entered for series [12] is Rattus norvegicus. In words: Reduction in stomach phosphorus content in Sprague-Dawley rat model of uremia-associated vascular calcification measured after 27 days in presence of calcitriol. Type of series: functional.
The species entered for series [13] is Rattus norvegicus. Kind of series: Reduction in aortic calcium content in Sprague-Dawley rat model of uremia-associated vascular calcification measured after 27 days in presence of calcitriol. Type of series: functional.
The species entered for series [14] is Rattus norvegicus. In words: Reduction in aortic phosphorus content in Sprague-Dawley rat model of uremia-associated vascular calcification measured after 27 days in presence of calcitriol. In kind it is functional.
The subject of series [15] is Rattus norvegicus. In words: Reduction in serum phosphorus level in adenine-induced uremic Sprague-Dawley rat model at 2 to 5 mg/kg administered with chow diet. Type of series: functional, organism-based.
In series [16] the test system is Rattus norvegicus. In words: Reduction in serum creatinine level in adenine-induced uremic Sprague-Dawley rat model at 2 to 5 mg/kg administered with chow diet. Type of series: functional, organism-based.
Series [17] relates to Rattus norvegicus. Kind of series: Anti-remodeling activity in adenine-induced uremic Sprague-Dawley rat model assessed as decrease in ratio of kidney weight to body weight at 2 to 5 mg/kg administered with chow diet. Type of series: functional, organism-based.
Series [18] has as its system Rattus norvegicus. In words: Anti-remodeling activity in adenine-induced uremic Sprague-Dawley rat model assessed as decrease in ratio of heart weight to body weight at 2 to 5 mg/kg administered with chow diet. Type of series: functional, organism-based.
In series [19] the test system is Rattus norvegicus. Kind of series: Anti-remodeling activity in adenine-induced uremic Sprague-Dawley rat model assessed as decrease in ratio of stomach weight to body weight at 2 to 5 mg/kg administered with chow diet. In kind it is functional, organism-based.
Series [20] has as its system Rattus norvegicus. In words: Anti-remodeling activity in adenine-induced uremic Sprague-Dawley rat model assessed as decrease in ratio of aortic arch weight to body weight at 2 to 5 mg/kg administered with chow diet. Type of series: functional, organism-based.
Series [21] deals with Rattus norvegicus. In words: Reduction in stomach calcium content in adenine-induced uremic Sprague-Dawley rat model at 5 mg/kg administered with chow diet. Type of series: functional, organism-based.
In series [22] the test system is Rattus norvegicus. Kind of series: Reduction in stomach phosphorus content in adenine-induced uremic Sprague-Dawley rat model at 5 mg/kg administered with chow diet. In kind it is functional, organism-based.
Series [23] has as its system Rattus norvegicus. In words: Reduction in aortic calcium content in adenine-induced uremic Sprague-Dawley rat model at 5 mg/kg administered with chow diet. In kind it is functional, organism-based.
The subject of series [24] is Rattus norvegicus. Kind of series: Reduction in aortic phosphorus content in adenine-induced uremic Sprague-Dawley rat model at 5 mg/kg administered with chow diet. In kind it is functional, organism-based.
Series [25] relates to Rattus norvegicus. Kind of series: Reduction in urinary phosphorus mass in rat at 0.3 to 3 mg/kg administered with diet relative to vehicle-control. In kind it is functional, organism-based.
Series [26] deals with Rattus norvegicus. In words: Reduction in urinary calcium mass in rat at 0.3 to 3 mg/kg administered with diet relative to vehicle-control. Type of series: functional, organism-based.
The subject of series [27] is Rattus norvegicus. In words: Antihypertensive activity in dietary salt-induced Sprague-Dawley rat partial ablation model of chronic kidney disease assessed as reduction in blood pressure at 0.3 to 3 mg/kg administered with chow diet measured after 7 days. Type of series: functional, organism-based.
A short description of series [28]: Reduction in fluid overload in dietary salt-induced Sprague-Dawley rat partial ablation model of chronic kidney disease at 0.3 to 3 mg/kg administered with chow diet measured after 7 days. Type of series: functional, organism-based.
For series [29], the system named is Rattus norvegicus. Kind of series: Reduction in albuminuria in dietary salt-induced Sprague-Dawley rat partial ablation model of chronic kidney disease at 0.3 to 3 mg/kg administered with chow diet measured after 7 days. In kind it is functional, organism-based.
The subject of series [30] is Rattus norvegicus. In words: Antihypertrophic activity in dietary salt-induced Sprague-Dawley rat partial ablation model of chronic kidney disease assessed as change in heart morphology at 0.3 to 3 mg/kg administered with chow diet measured after 7 days. In kind it is functional, organism-based.
For series [31], the system named is Rattus norvegicus. In words: Antihypertrophic activity in dietary salt-induced Sprague-Dawley rat partial ablation model of chronic kidney disease assessed as change in kidney morphology at 0.3 to 3 mg/kg administered with chow diet measured after 7 days. Type of series: functional, organism-based.
The species entered for series [32] is Rattus norvegicus. In words: Increase in plasma albumin level in Sprague-Dawley rat model of uremia-associated vascular calcification measured after 27 days in presence of calcitriol. Type of series: functional.
The species entered for series [33] is Rattus norvegicus. Kind of series: Increase in plasma calcium level in Sprague-Dawley rat model of uremia-associated vascular calcification measured after 27 days in presence of calcitriol. Type of series: functional.
The species entered for series [34] is Rattus norvegicus. Kind of series: Effect on heart hypertrophy in Sprague-Dawley rat model of uremia-associated vascular calcification assessed as reduction in heart to body weight ratio measured after 27 days in presence of calcitriol. Type of series: functional.
Series [35] is filed under the species Rattus norvegicus. In words: Effect on kidney hypertrophy in Sprague-Dawley rat model of uremia-associated vascular calcification assessed as reduction in kidney to body weight ratio measured after 27 days in presence of calcitriol. In kind it is functional.
The test system of series [36] is Rattus norvegicus. Kind of series: Effect on phosphate level in urine in Sprague-Dawley rat at 0.03 mg/kg administered via oral gavage measured after 16 hrs by gravimetric analysis relative to vehicle-treated control. In kind it is functional.

The record followed here is ChEMBL document CHEMBL3880442, “NHE3-binding compounds and methods for inhibiting phosphate transport” (2014).

The structures appear in SMILES notation. Active and inactive are the calls of the source. The calls are words filed in the database; no cut-off is given here.

Turning to `CN1Cc2c(Cl)cc(Cl)cc2[C@H](c2cccc(S(=O)(=O)NCCOCCOCCNC(=O)CCC(CCC(=O)NCCOCCOCCNS(=O)(=O)c3cccc([C@@H]4CN(C)Cc5c(Cl)cc(Cl)cc54)c3)(CCC(=O)NCCOCCOCCNS(=O)(=O)c3cccc([C@@H]4CN(C)Cc5c(Cl)cc(Cl)cc54)c3)NC(=O)NCP(=O)(O)O)c2)C1`, the Activity in the series with Rattus norvegicus [1] stood at 130%; with Rattus norvegicus [2], 50%.

As for `CN1Cc2c(Cl)cc(Cl)cc2[C@H](c2cccc(S(=O)(=O)NCCOCCOCCNC(=O)NCCCCNC(=O)NCCOCCOCCNS(=O)(=O)c3cccc([C@@H]4CN(C)Cc5c(Cl)cc(Cl)cc54)c3)c2)C1.Cl.Cl` [TENAPANOR HYDROCHLORIDE], the Activity in the series on Rattus norvegicus [3] is reported as 11%; in series [4] it was “Non-Toxic”.

As to `CN1Cc2c(Cl)cc(Cl)cc2[C@H](c2cccc(S(=O)(=O)NCCOCCOCCNC(=O)NCCCCNC(=O)NCCOCCOCCNS(=O)(=O)c3cccc([C@@H]4CN(C)Cc5c(Cl)cc(Cl)cc54)c3)c2)C1`, the outcome in the series on Rattus norvegicus [5], in the series filed under Rattus norvegicus [6], in the series listed under Rattus norvegicus [7], in the series filed under Rattus norvegicus [8], in the series listed under Rattus norvegicus [9] and in the series filed under Rattus norvegicus [10] was Active. For the same compound, the result in the series filed under Rattus norvegicus [11], in the series listed under Rattus norvegicus [12], in the series filed under Rattus norvegicus [13], in the series filed under Rattus norvegicus [14], in the series on Rattus norvegicus [15] and in the series with Rattus norvegicus [16] was Active. Further, the outcome with Rattus norvegicus [17], in the series on Rattus norvegicus [18], in the series with Rattus norvegicus [19], in the series with Rattus norvegicus [20], in the series on Rattus norvegicus [21] and in the series with Rattus norvegicus [22] was Active. Moreover, the result (in the series on Rattus norvegicus [23]; in the series with Rattus norvegicus [24]; with Rattus norvegicus [25]; in the series with Rattus norvegicus [26]; in the series with Rattus norvegicus [27]; in series [28]) was Active. Besides, the result in the series on Rattus norvegicus [29], with Rattus norvegicus [30], in the series with Rattus norvegicus [31], in the series filed under Rattus norvegicus [32], in the series listed under Rattus norvegicus [33] and in the series listed under Rattus norvegicus [34] was Active. Further, in the series listed under Rattus norvegicus [35], the outcome was Active.

Turning to `CN1Cc2c(Cl)cc(Cl)cc2[C@H](c2cccc(S(=O)(=O)NCCOCCOCCNC(=O)NCCCCNC(=O)NCCOCCOCCNS(=O)(=O)c3cccc([C@@H]4CN(C)Cc5c(Cl)cc(Cl)cc54)c3)c2)C1` [TENAPANOR], in the series on Rattus norvegicus [36], the Activity is given as 80%.
